Reference: patent US6358885B1, “Substituted phenylheterocyclic herbicides” (Mississippi State University, priority 1992, dated 2002)

Tests used:
barnyardgrass = experiment: Test B preemergence/postemergence greenhouse plant response rating 0 to 10; type: in vivo, Echinochloa crus-galli; conditions: for Plant response rating, Barnyardgrass: 0 to 10 scale
Procedure, shortened: (§1)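 Planted seeds are treated preemergence with compound dissolved in a non-phytotoxic solvent, while postemergence applications go onto plants of two to eighteen cm. Plants stay in the greenhouse twelve to sixteen days and are then rated visually relative to controls.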

giant foxtail = experiment: as above; type: in vivo, Setaria faberii; conditions: 0 to 10 scale
Procedure, shortened: as §1

rice = experiment: Test C flood test plant response rating 0 to 100; type: in vivo, Oryza sativa; conditions: for Plant response rating Rice Japonica: flood test species listed under POSTEMERGENCE, 0 to 100 scale
Procedure, shortened: (§2)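 Compounds in non-phytotoxic solvent applied preemergence to sandy loam one day after planting, postemergence at the 1–4 leaf stage, or to ~2.5 cm floodwater over silt loam.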

velvetleaf [1] = experiment: Test C preemergence/postemergence greenhouse plant response rating 0 to 100; type: in vivo, Abutilon theophrasti; conditions: POSTEMERGENCE; for Plant response rating, Velvetleaf: 0 to 100 scale
Procedure, shortened: as §2

wild oat = experiment: as above; type: in vivo, Avena fatua; conditions: POSTEMERGENCE; for Plant response rating, Wild oat: 0 to 100 scale
Procedure, shortened: as §2

alfalfa = experiment: Test G preemergence/postemergence greenhouse plant response rating 0 to 100; type: in vivo, Medicago ativa; conditions: 0 to 100 scale
Procedure, shortened: (§3)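 Scoring: visual injury at 13 to 21 days post-application, compared with untreated controls. Planting: one species per pot in greenhouse medium. Dosing: compound in non-phytotoxic solvent, within one day of sowing for preemergence or at 2–4 leaves for postemergence.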

crabgrass = experiment: Test C preemergence/postemergence greenhouse plant response rating 0 to 100; type: in vivo, Digitaria sanguinalis; conditions: POSTEMERGENCE; for Plant response rating, Crabgrass: 0 to 100 scale
Procedure, shortened: as §2

pigweed = experiment: as above; type: in vivo, Amaranthusretroflexus; conditions: POSTEMERGENCE; for Plant response rating Pigweed: 0 to 100 scale
Procedure, shortened: as §2

purple nutsedge = experiment: Test G preemergence/postemergence greenhouse plant response rating 0 to 100; type: in vivo, Cyperus rotundus; conditions: Rate 125 g/ha, 0 to 100 scale
Procedure, shortened: as §3

cotton = experiment: Test C preemergence/postemergence greenhouse plant response rating 0 to 100; type: in vivo, Gossypium hirsutum; conditions: POSTEMERGENCE; for Plant response rating, Cotton: 0 to 100 scale
Procedure, shortened: as §2

velvetleaf [2] = experiment: Test B preemergence/postemergence greenhouse plant response rating 0 to 10; type: in vivo, Abutilon theophrasti; conditions: 0 to 10 scale
Procedure, shortened: as §1

sugar beet = experiment: as above; type: in vivo, Beta vulgaris; conditions: 0 to 10 scale
Procedure, shortened: as §1

sorghum = experiment: Test C preemergence/postemergence greenhouse plant response rating 0 to 100; type: in vivo, Sorghum bicolor; conditions: POSTEMERGENCE; for Plant response rating, Sorghum: 0 to 100 scale
Procedure, shortened: as §2

lambsquarters = experiment: Test B preemergence/postemergence greenhouse plant response rating 0 to 10; type: in vivo, Chenopodium album; conditions: 0 to 10 scale
Procedure, shortened: as §1

SMILES: COc1cc(-c2nn3c(c2Cl)CCCC3)c(F)cc1Cl [Compound 29]
- Plant response rating (0 to 10 scale), Barnyardgrass (barnyardgrass; POSTEMERGENCE, Rate 50 g/ha): 8
- Plant response rating, Barnyardgrass (barnyardgrass; POSTEMERGENCE, Rate 200 g/ha): 10
- Plant response rating, Barnyardgrass (barnyardgrass; PREEMERGENCE, Rate 50 g/ha): 4
- Plant response rating, Barnyardgrass (barnyardgrass; Rate 200 g/ha, PREEMERGENCE): 8
- Plant response rating, Giant foxtail (giant foxtail; POSTEMERGENCE, Rate 50 g/ha): 3
- Plant response rating, Giant foxtail (giant foxtail; PREEMERGENCE, Rate 50 g/ha): 8
- Plant response rating, Giant foxtail (giant foxtail; Rate 200 g/ha, POSTEMERGENCE): 6
- Plant response rating, Giant foxtail (giant foxtail; Rate 200 g/ha, PREEMERGENCE): 9
- Plant response rating (0 to 100), Rice Japonica (rice; POSTEMERGENCE section, flood test, Rate 4 g/ha): 30
- Plant response rating (0 to 100), Rice Japonica (rice; Rate 16 g/ha, under POSTEMERGENCE head (flood test species)): 65
- Plant response rating Rice Japonica (rice; 62 g/ha): 70
- Plant response rating Rice Japonica (rice; 250 g/ha): 90
- Plant response rating, Velvetleaf (velvetleaf [1]; 62 g/ha): 100
- Plant response rating, Velvetleaf (velvetleaf [1]; 250 g/ha): 100
- Plant response rating (0 to 100), Velvetleaf (velvetleaf [1]; Rate 4 g/ha): 50
- Plant response rating (0 to 100), Velvetleaf (velvetleaf [1]; Rate 16 g/ha): 100
- Plant response rating, Wild oat (wild oat; 62 g/ha): 60
- Plant response rating, Wild oat (wild oat; 250 g/ha): 90
- Plant response rating (0 to 100), Wild oat (wild oat; Rate 4 g/ha): 20
- Plant response rating (0 to 100), Wild oat (wild oat; Rate 16 g/ha): 40
- Plant response rating, Alfalfa Var. (alfalfa; POSTEMERGENCE, Rate 125 g/ha): 0
- Plant response rating, Alfalfa Var. (alfalfa; POSTEMERGENCE, Rate 250 g/ha): 70
- Plant response rating, Alfalfa Var. (alfalfa; PREEMERGENCE, Rate 125 g/ha): 0
- Plant response rating, Alfalfa Var. (alfalfa; PREEMERGENCE, Rate 250 g/ha): 0
- Plant response rating, Crabgrass (crabgrass; 62 g/ha): 20
- Plant response rating, Crabgrass (crabgrass; 250 g/ha): 50
- Plant response rating (0 to 100), Crabgrass (crabgrass; Rate 4 g/ha): 0
- Plant response rating (0 to 100), Crabgrass (crabgrass; Rate 16 g/ha): 20
- Plant response rating Pigweed (pigweed; 62 g/ha): 100
- Plant response rating Pigweed (pigweed; 250 g/ha): 100
- Plant response rating (0 to 100), Pigweed (pigweed; Rate 4 g/ha): 50
- Plant response rating (0 to 100), Pigweed (pigweed; Rate 16 g/ha): 100
- Plant response rating, Purple Nutsedge (purple nutsedge; POSTEMERGENCE): 0
- Plant response rating, Purple Nutsedge (purple nutsedge; PREEMERGENCE): 0
- Plant response rating, Cotton (cotton; 62 g/ha): 100
- Plant response rating, Cotton (cotton; 250 g/ha): 100
- Plant response rating (0 to 100), Cotton (cotton; Rate 4 g/ha): 100
- Plant response rating (0 to 100), Cotton (cotton; Rate 16 g/ha): 100
- Plant response rating, Velvetleaf (velvetleaf [2]; POSTEMERGENCE, Rate 50 g/ha): 8
- Plant response rating, Velvetleaf (velvetleaf [2]; PREEMERGENCE, Rate 50 g/ha): 10
- Plant response rating, Velvetleaf (velvetleaf [2]; Rate 200 g/ha, POSTEMERGENCE): 10
- Plant response rating, Velvetleaf (velvetleaf [2]; Rate 200 g/ha, PREEMERGENCE): 10
- Plant response rating, Sugar beet (sugar beet; POSTEMERGENCE, Rate 50 g/ha): 10
- Plant response rating, Sugar beet (sugar beet; PREEMERGENCE, Rate 50 g/ha): 7
- Plant response rating, Sugar beet (sugar beet; Rate 200 g/ha, POSTEMERGENCE): 10
- Plant response rating, Sugar beet (sugar beet; Rate 200 g/ha, PREEMERGENCE): 10
- Plant response rating, Sorghum (sorghum; 62 g/ha): 20
- Plant response rating, Sorghum (sorghum; 250 g/ha): 50
- Plant response rating (0 to 100), Sorghum (sorghum; Rate 4 g/ha): 0
- Plant response rating (0 to 100), Sorghum (sorghum; Rate 16 g/ha): 0
- Plant response rating, Lambsquarter (lambsquarters; POSTEMERGENCE, Rate 50 g/ha): 10
- Plant response rating, Lambsquarter (lambsquarters; PREEMERGENCE, Rate 50 g/ha): 10
- Plant response rating, Lambsquarter (lambsquarters; Rate 200 g/ha, POSTEMERGENCE): 10
- Plant response rating, Lambsquarter (lambsquarters; Rate 200 g/ha, PREEMERGENCE): 10
